We go through 106 compounds from PubChem BioAssay AID1189 (EPA DSSTox, 2008).

Molecules are shown by their SMILES. Calls of active or inactive are those of the source.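 How the source made its calls: active means a tumor-causing dose value with its tumor site reported for any sex and species group of a rodent or other animal cancer study; inconclusive means only studies judged inadequate by the national testing program; inactive means tested in at least one study, none positive.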

This data set is described as follows: DSSTox (CPDBAS) Carcinogenic Potency Database Summary SingleCellCall Results. Particulars: animal chronic carcinogenicity bioassays, CPDB summary call. Put shortly:
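Categorical carcinogenicity call compiled from published chronic rodent and other animal cancer bioassays; based on the most positive result across experiments for each sex-species, assigned on minimal evidence for or against activity.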
For the compound `Cc1cccc(N)c1`, the outcome is “active; inactive”.
For the compound `Cc1cc(C)nc(NS(=O)(=O)c2ccc(N)cc2)n1`, the outcome was active.
Next, `NC(=O)N(CCF)N=O`: “active; inactive”; `CCCOC(=O)C1c2cc3c(cc2CC(C)C1C(=O)OCCC)OCO3` (stereo unspecified): “inactive”.
For `O=S(=O)([O-])[O-].[Cd+2]`, the outcome is “active; inactive”.
Regarding `O=P(OC(CCl)CCl)(OC(CCl)CCl)OC(CCl)CCl`, the result was active.
Regarding `CC1CC(=O)O1` (stereo unspecified), the outcome was active.
The same measure for `Brc1cc(Br)c2cccnc2c1`: “inactive; active”; for `c1ccc2occc2c1`: “active; inactive”.
For `CC1(C)[C@@H](O)CC[C@]2(C)[C@H]3C(=O)C=C4[C@@H]5C[C@@](C)(C(=O)O)CC[C@]5(C)CC[C@@]4(C)[C@]3(C)CC[C@@H]12`, the outcome was inactive.
For `CCCCCN(N=O)C(=N)N[N+](=O)[O-]`, the outcome was inactive.
The same measure for `Nc1nc(N)nc(N)n1`: “active”; for `Nc1ccc2ccccc2c1S(=O)(=O)O`: “inactive”; for `CC(N)=S`: “active”.
For the compound `O=S1OCC2C(CO1)C1(Cl)C(Cl)=C(Cl)C2(Cl)C1(Cl)Cl` (stereo unspecified), the outcome was “inactive; active”.
Take `CCOC(=O)CC(SP(=O)(OC)OC)C(=O)OCC` (stereo unspecified): the result was inactive.
With `COc1cc(-c2ccc(N=Nc3c(S(=O)(=O)O)cc4cc(S(=O)(=O)O)cc(N)c4c3O)c(OC)c2)ccc1N=Nc1c(S(=O)(=O)O)cc2cc(S(=O)(=O)O)cc(N)c2c1O`, the outcome was active.
For the compound `CC#N`, the outcome was inactive.
Regarding `C/C=C(/C)C(=O)O[C@H]1CCN2CC=C(COC(=O)[C@](O)([C@H](C)OC)C(C)(C)O)[C@H]12`, the outcome was active.
Take `C[C@]12C=CC(=O)C=C1CC[C@@H]1[C@@H]2[C@@H](O)C[C@@]2(C)[C@H]1CC[C@]2(O)C(=O)CO`: the outcome was active.
On to `CC(C)(CCCOc1ccc(OCCCC(C)(C)C(=O)O)c(-c2ccccc2)c1)C(=O)O`, for which the outcome was active.
For the compound `N`, the outcome was inactive.
As to `C=CC1CC=CCC1` (stereo unspecified), the outcome was active.
Regarding `NC(=O)OCC(COC(N)=O)c1ccccc1`, the outcome was “active; inactive”.
Take `Clc1ccccc1Cl`: the result was inactive.
Next, `O=S(=O)(O)c1ccc(N=Nc2cc(S(=O)(=O)O)c3ccccc3c2O)c2ccccc12`: “inactive; active”.
The same measure for `Oc1ccc2ccccc2c1N=Nc1ccccc1`: “active”; for `O=P1(N(CCCl)CCCl)NCCCO1` (stereo unspecified): “active”; for `CNC(=S)N(C)C`: “active”.
With `CCCCNC(=O)NS(=O)(=O)c1ccc(C)cc1`, the outcome was inactive.
Next, `CC1CN(N=O)CC(C)N1N=O` (stereo unspecified): “active”; `N#CC(c1ccccc1)c1ccccc1`: “inactive”.
The same measure for `c1ccc2c(c1)ccc1cc3c(ccc4ccccc43)cc12`: “active”; for `CN(C)CCN(Cc1ccsc1)c1ccccn1`: “inactive; active”; for `CC1CN(N=O)CC(C)O1` (stereo unspecified): “active”.
For the compound `CC(N)Cc1ccccc1` (stereo unspecified), the outcome was inactive.
With `CCOc1ccccc1C(N)=O`, the result was active.
For the compound `C1N2CN3CN1CN(C2)C3`, the outcome was “inactive; active”.
As for `CCSCC[C@H](N)C(=O)O`, the outcome is “active; inactive”.
`ClCOCCCCOCCl`: the outcome was inactive.
Consider `CCCC(CCC)C(=O)O`, for which the outcome was active.
On to `COC(N)=O`, for which the result was active.
With `O=[N+]([O-])c1ccc2nc[nH]c2c1`, the result was active.
The same measure for `CC(C(=O)O)c1cccc(C(=O)c2ccccc2)c1` (stereo unspecified): “inactive”; for `O=c1cc(CO)occ1O`: “active”.
On to `COC(=O)C1=C(C)NC(C)=C(C(=O)OCCc2ccc(N3CCN(C(c4ccccc4)c4ccccc4)CC3)cc2)C1c1cccc([N+](=O)[O-])c1` (stereo unspecified), for which the outcome is “inactive; active”.
With `COc1cc2c(c3oc(=O)c4c(c13)CCOC4=O)C1C=COC1O2` (stereo unspecified), the result was active.
For the compound `NNc1nc(-c2ccc(N)cc2)cs1`, the outcome was active.
For the compound `Nc1ccc(N(CCO)CCO)cc1`, the result was inactive.
On to `CCCCC1(COC(=O)CCC(=O)O)C(=O)N(c2ccccc2)N(c2ccccc2)C1=O`, for which the outcome was inactive.
As for `CN(N=O)C(=O)c1c(N(C)N=O)ncn1C`, the outcome was active.
As for `CCN(CC)N=O`, the outcome is “active; inactive”.
As to `Clc1cccc(-c2cc(Cl)cc(Cl)c2)c1`, the outcome was active.
Take `Cc1ccc(N=C=O)cc1N=C=O`: the outcome is “active; inactive”.
For the compound `CC(O)C(=O)O` (stereo unspecified), the result was inactive.
`CC(=O)Nc1ccc(-c2ccccc2)cc1`: the result was active.
Turning to `CN(N=O)c1ccccc1`, the result was active.
In the case of `CCCCCCCCCC[N+](C)(C)[O-]`, the result was inactive.
The same measure for `C=C1C(C)(C)[C@@]2(Cl)C(Cl)[C@]1(Cl)C(Cl)(Cl)C2(Cl)Cl` (stereo partly specified): “active”; for `NC(=S)NNC(N)=S`: “inactive”.
Consider `Cc1c([N+](=O)[O-])c(C)c([N+](=O)[O-])c(C(C)(C)C)c1[N+](=O)[O-]`, for which the result was active.
Next, `ClC(Cl)=C(Cl)c1c(Cl)c(Cl)c(Cl)c(Cl)c1Cl`: “inactive”; `O=CNNc1nc(-c2ccc([N+](=O)[O-])o2)cs1`: “active”; `C=C1C/C(=C/C)C(=O)O[C@@H]2CCN3CC=C(COC(=O)[C@@]1(O)CO)[C@H]23`: “active; inactive”.
As for `CC(=O)O[C@H]1CC[C@@]2(C)C(=CC[C@@H]3[C@@H]2CC[C@]2(C)C(=O)CC[C@@H]32)C1`, the outcome was active.
As to `Cc1cc(O)c(C(C)(C)C)cc1Sc1cc(C(C)(C)C)c(O)cc1C`, the outcome was inactive.
As for `CC(C)CCCCCCOC(=O)c1ccccc1C(=O)OCCCCCCC(C)C`, the outcome was “active; inactive”.
`COc1cc(NC(=O)C(N=Nc2ccc(-c3ccc(N=NC(C(C)=O)C(=O)Nc4cc(OC)c(Cl)cc4OC)c(Cl)c3)cc2Cl)C(C)=O)c(OC)cc1Cl` (stereo unspecified): the result was inactive.
Next, `O=[N+]([O-])c1ccc(NCCO)c(OCCO)c1`: “inactive”; `c1ccc(Nc2ccc3ccccc3c2)cc1`: “inactive”; `C/[N+]([O-])=N/CO[C@@H]1O[C@H](CO)[C@@H](O)[C@H](O)[C@H]1O`: “active”.
Next, `O=NN1CC=CCC1`: “active”; `CCCCCNN`: “active”; `CBr`: “inactive; active”.
`C[C@H](CCc1ccccc1)NC[C@H](O)c1ccc(O)c(C(N)=O)c1`: the result was inactive.
Next, `Cc1cc(Cc2ccc(N)c(C)c2)ccc1N`: “active”.
Consider `O=C/C(Cl)=C(/Cl)C(=O)O`, for which the outcome was inactive.
Turning to `COC(C(=O)O)c1ccccc1` (stereo unspecified), the outcome is “inactive; active”.
The same measure for `C[C@]12CC[C@H](O)CC1=CC[C@@H]1[C@@H]2CC[C@]2(C)C(=O)CC[C@@H]12`: “active”; for `COC(=O)NN`: “inactive; active”; for `O=[N+]([O-])c1ccc(Oc2ccc(Cl)cc2Cl)cc1`: “active”.
Take `O=CNc1nc(-c2ccc([N+](=O)[O-])o2)cs1`: the result was active.
For `c1ccoc1`, the outcome is “active; inactive”.
In the case of `C[C@H]1CCCC(=O)CCC/C=C/c2cc(O)cc(O)c2C(=O)O1`, the result was active.
For `CC1(C)[C@H](C(=O)O[C@H](C#N)c2cccc(Oc3ccccc3)c2)[C@@H]1C=C(Br)Br`, the outcome was inactive.
With `CCC[C@@H]1O[C@@H]2C[C@H]3[C@@H]4CCC5=CC(=O)C=C[C@]5(C)[C@H]4[C@@H](O)C[C@]3(C)[C@]2(C(=O)CO)O1`, the outcome was “active; inactive”.
The same measure for `CCC[CH2][Sn]([CH2]CCC)([CH2]CCC)[O][Sn]([CH2]CCC)([CH2]CCC)[CH2]CCC`: “inactive”.
As for `Cn1c(=O)c2[nH]cnc2n(C)c1=O`, the outcome was “inactive; active”.
Take `COc1cc(N)ccc1N=Nc1ccccc1`: the outcome was “inactive; active”.
Regarding `COC(=O)C1=CCCN(N=O)C1`, the result was inactive.
On to `C=C1CC[C@H](O)C/C1=C/C=C1\CCC[C@]2(C)[C@@H]([C@H](C)CC[C@@H](O)C(C)(C)O)CC[C@@H]12`, for which the outcome is “inactive; active”.
`NC(N)=Nc1nc(CSCCNc2nsnc2N)cs1`: the result was active.
For the compound `FC(F)OC(F)(F)C(F)Cl` (stereo unspecified), the result was inactive.
As for `C[C@H](CCC(=O)O)[C@H]1CC[C@H]2[C@@H]3[C@H](O)C[C@@H]4C[C@H](O)CC[C@]4(C)[C@H]3CC[C@]12C`, the outcome was inactive.
With `CC(O)CN(CC(C)O)N=O` (stereo unspecified), the outcome was active.
As for `CC(=O)C(N=Nc1ccc(Cl)cc1Cl)C(=O)Nc1ccc(-c2ccc(NC(=O)C(N=Nc3ccc(Cl)cc3Cl)C(C)=O)c(C)c2)cc1C` (stereo unspecified), the outcome was inactive.
For `O=C(Nc1cccc2c(=O)cc(-c3nn[nH]n3)oc12)c1ccc(OCCCCc2ccccc2)cc1`, the outcome is “inactive; active”.
Take `O=C/C=C/c1ccccc1`: the result was inactive.
For the compound `Cc1ccc(S(=O)(=O)OCCN(C)N=O)cc1`, the result was active.
Next, `CN(N=O)C(=O)Nc1nc2ccccc2s1`: “active”.
Next, `CCCCCCCN`: “inactive”; `CN1C(=O)CN=C(c2ccccc2)c2cc(Cl)ccc21`: “inactive”; `CCCN(N=O)C(N)=O`: “active”.
Consider `NC1CCCCC1`, for which the outcome was inactive.
In the case of `CN(C)C(=O)Nc1ccc(Cl)c(Cl)c1`, the outcome was inactive.
Take `C=CCN(CC(C)O)N=O` (stereo unspecified): the outcome was active.
